Assay results from patent publication US8822455B2, “Fused aminodihydrothiazine derivatives” (Eisai R&D Management Co., Ltd., priority 2011, dated 2014).
pIC50: −log10 of the molar value.

system: Aβ42; assay: In vitro cellular assay (Aβ42): quantification of Aβ peptide in culture of neurons from rat fetus brain (ELISA); format: cell-based; conditions: Primary cortical neuron, 72 h, rat primary cortical neurons (embryonic day 18 Wistar), 3 days after addition of compound, read-out: Cell IC50
Procedure: In vitro Cellular Assay (Aβ42):
Quantification of AβPeptide in Culture of Neurons from Rat Fetus Brain
(1) Rat Primary Neuronal Culture
Primary neuronal cultures were prepared from the cerebral cortex of embryonic day 18 Wistar rats (Charles River, UK). Specifically, the embryos were aseptically removed from pregnant rats under ether anesthesia. The brain was isolated from the embryo and immersed in HBSS (Sigma Aldrich #H9269) containing 10 mM HEPES (Gibco #15630-056). The cerebral cortex was collected from the isolated brain under a stereoscopic microscope. The cerebral cortex fragments collected were enzymatically treated in an enzyme solution containing 0.05% trypsin-EDTA solution (GIBCO, #25300) at 37° C. for 20 minutes to disperse the cells. The cells were then washed twice and then gently resuspended in Neurobasal medium (Gibco #21103) supplemented with 2% B27 supplement (GIBCO #17504-044), 0.5 mM L-glutamine (GIBCO #25030), 1×N2 (GIBCO #17502-048), 100 ug/ml Pen/Strep (GIBCO 15140-122) and 5% heat inactivated FCS (PAA #A15-701). The cell dispersion was filtered through a 40-μm nylon mesh (BD Falcon #352340) to remove the remaining cell mass, and thus a neuronal cell suspension was obtained. The neuronal cell suspension was diluted with the medium above and then plated in a volume of 100 μL/well at an initial cell density of 3.25×10^5 cells/ml in poly-D-lysine coated 96-well culture plate (Greiner #655940). The plated cells were cultured in the culture plate at 37° C. in 5% CO2-95% air for 24 hrs. The total amount of the medium was replaced with ‘assay Neurobasal medium’ (as above excluding heat inactivated FCS), and then the cells were cultured for a further five days.
The drug was added to the culture plate on Day 6 of culture as follows. 8 point compound serial dilutions were generated in DMSO at a concentration of ×1000 that of the final assay concentration (FAC). Compound solutions were then prepared by adding 999 ul of ‘Assay Neurobasal media’ (as described in above section) to 1 ul of DMSO compound stock. The total amount of the medium was removed from each of the cell plate wells, and 200 μL/well of compound solution was added. The final DMSO concentration was 0.1%.
The cells were cultured for either 1 or 3 days after addition of the compound for ABx-40 and ABx-42 assays respectively. 150 μl of sample medium was collected and used as the ELISA sample.
Human/Rat β Amyloid (42) ELISA Kit Wako (#290-62601) and Human/Rat β Amyloid (40) ELISA Kit Wako (#294-62501) from Wako Pure Chemical Industries, Ltd. were used for Aβ ELISA Aβ ELISA was carried out according to the protocols recommended by the manufacturers, described in the documents accompanying the kits. The results were shown as percentage of the control groups and IC50 values for each compound were determined using four parameter logistic fit model using the XLFIT5 software package (IDBS).

Point of comparison: `Cc1ncccc1-c1ccc(F)c([C@]23CO[C@H](C)[C@H]2CSC(N)=N3)c1` [Example 18, (4aS,5R,7aS)-7a-(2-fluoro-5-(2-methylpyridin-3-yl)phenyl)-5-methyl-4a,5,7,7a-tetrahydro-4H-furo[3,4-d][1,3]thiazin-2-amine], pIC50 6.66. Against it:
- C[C@H]1OC[C@]2(c3cc(-c4cnccn4)ccc3F)N=C(N)SC[C@H]12 [Example 22, (4aS,5R,7aS)-7a-(2-fluoro-5-(pyrazin-2-yl)phenyl)-5-methyl-4a,5,7,7a-tetrahydro-4H-furo[3,4-d][1,3]thiazin-2-amine] — 0.60 log units higher, 7.26
- NC1=N[C@@]2(c3cc(-c4cccnc4F)c(F)cc3F)CO[C@H](CF)[C@H]2CS1 [Example 28] — 0.68 log units higher, 7.34
- C[C@H]1OC[C@]2(c3cc(-c4cncc(OC5CC5)c4)ccc3F)N=C(N)SC[C@H]12 [Example 21, (4aS,5R,7aS)-7a-(5-(5-cyclopropoxypyridin-3-yl)-2-fluorophenyl)-5-methyl-4a,5,7,7a-tetrahydro-4H-furo[3,4-d][1,3]thiazin-2-amine] — 0.24 log units higher, 6.90
- NC1=N[C@@]2(c3cc(-c4ccc(F)nc4)c(F)cc3F)CO[C@H](CF)[C@H]2CS1 [Example 30, (4aS,5S,7aS)-7a-(2,4-difluoro-5-(6-fluoropyridin-3-yl)phenyl)-5-(fluoromethyl)-4a,5,7,7a-tetrahydro-4H-furo[3,4-d][1,3]thiazin-2-amine] — within 0.2 log units, 6.65
- C[C@H]1OC[C@]2(c3cc(-c4cccnn4)ccc3F)N=C(N)SC[C@H]12 [Example 23, (4aS,5R,7aS)-7a-(2-fluoro-5-(pyridazin-3-yl)phenyl)-5-methyl-4a,5,7,7a-tetrahydro-4H-furo[3,4-d][1,3]thiazin-2-amine] — 0.42 log units lower, 6.24
- C[C@H]1OC[C@]2(c3cc(-c4cccnc4)ccc3F)N=C(N)SC[C@H]12 [Example 4, (4aS,5R,7aS)-7a-(2-Fluoro-5-(pyridin-3-yl)phenyl)-5-methyl-4a,5,7,7a-tetrahydro-4H-furo[3,4-d][1,3]thiazin-2-amine] — 0.31 log units higher, 6.97
- C[C@H]1OC[C@]2(c3cc(-c4ccccc4F)ccc3F)N=C(N)SC[C@H]12 [Example 6, (4aS,5R,7aS)-7a-(2′,4-difluoro-[1,1′-biphenyl]-3-yl)-5-methyl-4a,5,7,7a-tetrahydro-4H-furo[3,4-d][1,3]thiazin-2-amine] — within 0.2 log units, 6.61
- Cc1cncc(-c2ccc(F)c([C@]34CO[C@H](C)[C@H]3CSC(N)=N4)c2)c1 [Example 15, (4aS,5R,7aS)-7a-(2-Fluoro-5-(5-methylpyridin-3-yl)phenyl)-5-methyl-4a,5,7,7a-tetrahydro-4H-furo[3,4-d][1,3]thiazin-2-amine] — 0.34 log units higher, 7.00
- COc1ccc(-c2ccc(F)c([C@]34CO[C@H](C)[C@H]3CSC(N)=N4)c2)cn1 [Example 11, (4aS,5R,7aS)-7a-(2-Fluoro-5-(6-methoxypyridin-3-yl)phenyl)-5-methyl-4a,5,7,7a-tetrahydro-4H-furo[3,4-d][1,3]thiazin-2-amine] — 0.58 log units lower, 6.08
- Cc1cnc(F)c(-c2ccc(F)c([C@]34CO[C@H](C)[C@H]3CSC(N)=N4)c2)c1 [Example 16, (4aS,5R,7aS)-7a-(2-fluoro-5-(2-fluoro-5-methylpyridin-3-yl)phenyl)-5-methyl-4a,5,7,7a-tetrahydro-4H-furo[3,4-d][1,3]thiazin-2-amine] — 0.58 log units higher, 7.24
- COc1cccc(-c2ccc(F)c([C@]34CO[C@H](C)[C@H]3CSC(N)=N4)c2)n1 [Example 24, (4aS,5R,7aS)-7a-(2-fluoro-5-(6-methoxypyridin-2-yl)phenyl)-5-methyl-4a,5,7,7a-tetrahydro-4H-furo[3,4-d][1,3]thiazin-2-amine] — lower, < 6.00
- C[C@H]1OC[C@]2(c3cc(-c4ccc(F)nc4)ccc3F)N=C(N)SC[C@H]12 [Example 10, (4aS,5R,7aS)-7a-(2-Fluoro-5-(6-fluoropyridin-3-yl)phenyl)-5-methyl-4a,5,7,7a-tetrahydro-4H-furo[3,4-d][1,3]thiazin-2-amine] — 0.37 log units higher, 7.03
- C[C@H]1OC[C@]2(c3cc(-c4ccnn4C)ccc3F)N=C(N)SC[C@H]12 [Example 20, (4aS,5R,7aS)-7a-(2-fluoro-5-(1-methyl-1H-pyrazol-5-yl)phenyl)-5-methyl-4a,5,7,7a-tetrahydro-4H-furo[3,4-d]thiazin-2-amine] — lower, < 6.00
- C[C@H]1OC[C@]2(c3cc(-c4cncc(C(F)(F)F)c4)ccc3F)N=C(N)SC[C@H]12 [Example 14, (4aS,5R,7aS)-7a-(2-Fluoro-5-(5-(trifluoromethyl)pyridine-3-yl)phenyl)-5-methyl-4a,5,7,7a-tetrahydro-4H-furo[3,4-d][1,3]thiazin-2-amine] — 0.21 log units higher, 6.87
- C[C@H]1OC[C@]2(c3cc(-c4cncnc4)c(F)cc3F)N=C(N)SC[C@H]12 (relative stereo) [Example 31, (4aS*,5R*,7aS*)-7a-(2,4-Difluoro-5-(pyrimidin-5-yl)phenyl)-5-methyl-4a,5,7,7a-tetrahydro-4H-furo[3,4-d][1,3]thiazin-2-amine] — 1.04 log units higher, 7.70
- C[C@H]1OC[C@]2(c3cc(-c4cncc(C#N)c4)ccc3F)N=C(N)SC[C@H]12 [Example 13, 5-(3-((4aS,5R,7aS)-2-Amino-5-methyl-4a,5,7,7a-tetrahydro-4H-furo[3,4-d][1,3]thiazin-7a-yl)-4-fluorophenyl)nicotinonitrile] — 0.55 log units higher, 7.21
- C[C@H]1OC[C@]2(c3cc(-c4cccc(=O)[nH]4)ccc3F)N=C(N)SC[C@H]12 [Example 25, 6-(3-((4aS,5R,7aS)-2-amino-5-methyl-4a,5,7,7a-tetrahydro-4H-furo[3,4-d][1,3]thiazin-7a-yl)-4-fluorophenyl)pyridin-2(1H)-one] — within 0.2 log units, 6.47
- NC1=N[C@@]2(c3cc(-c4cncnc4)c(F)cc3F)CO[C@H](CF)[C@H]2CS1 [Example 27, (4aS,5S,7aS)-7a-(2,4-Difluoro-5-(pyrimidin-5-yl)phenyl)-5-(fluoromethyl)-4a,5,7,7a-tetrahydro-4H-furo[3,4-d][1,3]thiazin-2-amine] — 0.57 log units higher, 7.23
- C[C@H]1OC[C@]2(c3cc(-c4cncc(OC(F)F)c4)ccc3F)N=C(N)SC[C@H]12 [Example 26] — 0.53 log units higher, 7.19
- C[C@H]1OC[C@]2(c3cc(-c4cccnc4F)ccc3F)N=C(N)SC[C@H]12 [Example 7, (4aS,5R,7aS)-7a-(2-Fluoro-5-(2-fluoropyridin-3-yl)phenyl)-5-methyl-4a,5,7,7a-tetrahydro-4H-furo[3,4-d][1,3]thiazin-2-amine] — 0.55 log units higher, 7.21
- C[C@H]1OC[C@]2(c3cc(-c4cncnc4)ccc3F)N=C(N)SC[C@H]12 [Example 1, (4aS,5R,7aS)-7a-(2-Fluoro-5-(pyrimidin-5-yl)phenyl)-5-methyl-4a,5,7,7a-tetrahydro-4H-furo[3,4-d][1,3]thiazin-2-amine] — 0.53 log units higher, 7.19
- C[C@H]1OC[C@]2(c3cc(-c4cnc(-c5cnccn5)[nH]4)ccc3F)N=C(N)SC[C@H]12 [Example 3, (4aS,5R,7aS)-7a-(2-fluoro-5-(2-(pyrazin-2-yl)-1H-imidazol-5-yl)phenyl)-5-methyl-4a,5,7,7a-tetrahydro-4H-furo[3,4-d][1,3]thiazin-2-amine] — 0.50 log units higher, 7.16
- COc1cncc(-c2cc([C@]34CO[C@H](CF)[C@H]3CSC(N)=N4)c(F)cc2F)c1 [Example 29, (4aS,5S,7aS)-7a-(2,4-difluoro-5-(5-methoxypyridin-3-yl)phenyl)-5-(fluoromethyl)-4a,5,7,7a-tetrahydro-4H-furo[3,4-d][1,3]thiazin-2-amine] — 1.16 log units higher, 7.82
- C[C@H]1OC[C@]2(c3cc(-c4cncc(F)c4)ccc3F)N=C(N)SC[C@H]12 [Example 9, (4aS,5R,7aS)-7a-(2-Fluoro-5-(5-fluoropyridin-3-yl)phenyl)-5-methyl-4a,5,7,7a-tetrahydro-4H-furo[3,4-d][1,3]thiazin-2-amine] — 0.56 log units higher, 7.22
- C[C@H]1OC[C@]2(c3cc(-c4cc(F)ccc4F)ccc3F)N=C(N)SC[C@H]12 [Example 12, (4aS,5R,7aS)-5-Methyl-7a-(2′,4,5′-trifluoro-[1,1′-biphenyl]-3-yl)-4a,5,7,7a-tetrahydro-4H-furo[3,4-d][1,3]thiazin-2-amine] — 0.28 log units higher, 6.94
